Key:
[1] = biological target: Interferon-induced, double-stranded RNA-activated protein kinase (Homo sapiens) (UniProt P19525); assay: Selectivity interaction (Kinase panel (KiNativ target engagement assay in Jurkat cells)) EUB0001635a EIF2AK2; format: cell-based; conditions: Selectivity number of off-targets 0.0, Selectivity number of targets 233.0, Source Knowledge https://www.sciencedirect.com/science/article/pii/S2451945619300674?via%3Dihub, at 1 µM
[2] = biological target: T1, Mitogen-activated protein kinase 15 (Homo sapiens) (UniProt Q8TD08); assay: Selectivity interaction (KinomeScan (DiscoverX)) EUB0000595a MAPK15; conditions: at 10 µM
T1 sequence (whole entry): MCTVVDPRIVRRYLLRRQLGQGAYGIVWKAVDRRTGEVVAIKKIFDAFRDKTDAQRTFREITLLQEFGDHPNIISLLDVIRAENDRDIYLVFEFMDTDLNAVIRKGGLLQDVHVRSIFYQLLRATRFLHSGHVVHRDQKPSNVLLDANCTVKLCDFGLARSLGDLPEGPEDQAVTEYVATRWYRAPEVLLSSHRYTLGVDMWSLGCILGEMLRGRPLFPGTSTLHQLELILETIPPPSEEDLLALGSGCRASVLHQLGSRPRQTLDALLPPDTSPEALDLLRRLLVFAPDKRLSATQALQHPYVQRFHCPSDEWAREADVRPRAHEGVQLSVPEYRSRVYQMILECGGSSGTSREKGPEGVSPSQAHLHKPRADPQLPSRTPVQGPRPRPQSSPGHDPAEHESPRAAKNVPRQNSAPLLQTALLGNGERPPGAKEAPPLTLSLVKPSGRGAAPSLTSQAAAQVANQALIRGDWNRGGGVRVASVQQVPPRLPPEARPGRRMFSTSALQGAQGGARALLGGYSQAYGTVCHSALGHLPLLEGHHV

[3] = biological target: T2, Tyrosine-protein kinase Tec (Homo sapiens) (UniProt P42680); assay: Selectivity interaction (KinomeScan (DiscoverX)) EUB0000695a TEC; conditions: at 100 nM
T2 sequence (whole entry): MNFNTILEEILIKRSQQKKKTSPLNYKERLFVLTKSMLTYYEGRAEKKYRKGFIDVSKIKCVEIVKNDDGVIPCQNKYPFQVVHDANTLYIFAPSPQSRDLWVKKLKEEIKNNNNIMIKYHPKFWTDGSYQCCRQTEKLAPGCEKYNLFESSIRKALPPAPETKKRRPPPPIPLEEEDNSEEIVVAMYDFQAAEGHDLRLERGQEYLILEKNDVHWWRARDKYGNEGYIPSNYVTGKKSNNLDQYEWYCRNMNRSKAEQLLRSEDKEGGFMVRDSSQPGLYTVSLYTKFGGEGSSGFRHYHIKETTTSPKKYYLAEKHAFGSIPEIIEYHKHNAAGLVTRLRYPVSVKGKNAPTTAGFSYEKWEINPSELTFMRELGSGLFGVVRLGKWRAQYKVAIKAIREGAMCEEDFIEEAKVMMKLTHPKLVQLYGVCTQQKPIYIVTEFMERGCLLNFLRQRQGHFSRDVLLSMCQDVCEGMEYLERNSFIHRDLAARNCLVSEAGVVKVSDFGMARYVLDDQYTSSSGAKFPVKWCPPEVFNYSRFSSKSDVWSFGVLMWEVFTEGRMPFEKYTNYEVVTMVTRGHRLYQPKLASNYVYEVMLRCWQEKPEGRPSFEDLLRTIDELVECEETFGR

[4] = biological target: Activin receptor type-2B (Homo sapiens) (UniProt Q13705); assay: Selectivity interaction (KinomeScan (DiscoverX)) EUB0001079a ACVR2B; conditions: at 1 µM
[5] = biological target: Calcium/calmodulin-dependent protein kinase type II subunit delta (Homo sapiens) (UniProt Q13557); assay: Selectivity interaction (Kinase panel (Z-LYTE Assay)) EUB0001632a CAMK2D; conditions: at 10 µM
[6] = biological target: LIM domain kinase 1 (Homo sapiens) (UniProt P53667); assay: Selectivity interaction (LanthaScreen Eu Kinase Binding Assay) EUB0001632a LIMK1; conditions: at 10 µM
[7] = biological target: Sodium-dependent noradrenaline transporter (Homo sapiens, UniProt P23975); assay: Selectivity interaction (Panel of non-epigenetic targets (kinases, GPCRs, ion channels, and transporters, Eurofins) ) EUB0000271b SLC6A2; conditions: at 1 µM
[8] = biological target: RAC-beta serine/threonine-protein kinase (Homo sapiens) (UniProt P31751); assay: Selectivity interaction (Kinase screening (Nanosyn)) EUB0000604a AKT2
[9] = biological target: Platelet-derived growth factor receptor alpha (Homo sapiens, UniProt P16234); assay: Selectivity interaction (KinomeScan (DiscoverX)) EUB0001049a PDGFRA; conditions: at 1 µM
[10] = biological target: Interleukin-1 receptor-associated kinase 1 (Homo sapiens) (UniProt P51617); assay: Selectivity interaction (Upstate Kinase Profiler service (Millipore)) EUB0000056c IRAK1; conditions: at 1 µM
[11] = biological target: Serine/threonine-protein kinase MRCK beta (Homo sapiens) (UniProt Q9Y5S2); assay: Selectivity interaction (Upstate Kinase Profiler service (Millipore)) EUB0000056c CDC42BPB; conditions: at 1 µM
[12] = biological target: Mitogen-activated protein kinase kinase kinase 11 (Homo sapiens) (UniProt Q16584); assay: Selectivity interaction (KinomeScan (DiscoverX)) EUB0000618a MAP3K11; conditions: at 10 µM
[13] = test system: Epidermal growth factor receptor (Homo sapiens), P00533 [UNDEFINED MUTATION]; assay: Selectivity interaction (KinomeScan (DiscoverX)) EUB0000618a EGFR; conditions: at 10 µM
[14] = biological target: BDNF/NT-3 growth factors receptor (Homo sapiens) (UniProt Q16620); assay: Selectivity interaction (Kinase panel (Invitrogen)) EUB0000639a NTRK2; conditions: at 200 nM
[15] = biological target: Fibroblast growth factor receptor 3 (Homo sapiens, UniProt P22607); assay: Selectivity interaction (Kinase panel (Invitrogen)) EUB0000639a FGFR3; conditions: at 200 nM
[16] = biological target: Phosphatidylinositol 4,5-bisphosphate 3-kinase catalytic subunit gamma isoform (Homo sapiens) (UniProt P48736); assay: Selectivity interaction (Ambit KINOMEscan and KiNATiv profiling in Jurkat cells) EUB0000090b PIK3CG; format: cell-based; conditions: at 1 µM

Sequence of Calcium/calmodulin-dependent protein kinase type II subunit delta (Homo sapiens) (Q13557 whole entry, the tested form may be a part): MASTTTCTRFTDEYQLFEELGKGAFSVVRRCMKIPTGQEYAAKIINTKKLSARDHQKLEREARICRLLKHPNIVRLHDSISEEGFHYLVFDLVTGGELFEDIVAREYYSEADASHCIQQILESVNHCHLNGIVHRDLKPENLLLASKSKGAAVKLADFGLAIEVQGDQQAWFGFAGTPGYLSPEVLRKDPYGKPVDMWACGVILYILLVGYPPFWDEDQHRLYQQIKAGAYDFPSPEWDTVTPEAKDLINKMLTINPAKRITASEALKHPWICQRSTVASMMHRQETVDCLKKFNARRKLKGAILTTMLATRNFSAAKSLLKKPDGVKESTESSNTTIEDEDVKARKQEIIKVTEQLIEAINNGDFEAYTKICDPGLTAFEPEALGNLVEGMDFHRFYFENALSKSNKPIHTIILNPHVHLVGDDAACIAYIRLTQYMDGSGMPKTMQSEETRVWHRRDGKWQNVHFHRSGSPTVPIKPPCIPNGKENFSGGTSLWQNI
Sequence of RAC-beta serine/threonine-protein kinase (Homo sapiens) (P31751 whole entry): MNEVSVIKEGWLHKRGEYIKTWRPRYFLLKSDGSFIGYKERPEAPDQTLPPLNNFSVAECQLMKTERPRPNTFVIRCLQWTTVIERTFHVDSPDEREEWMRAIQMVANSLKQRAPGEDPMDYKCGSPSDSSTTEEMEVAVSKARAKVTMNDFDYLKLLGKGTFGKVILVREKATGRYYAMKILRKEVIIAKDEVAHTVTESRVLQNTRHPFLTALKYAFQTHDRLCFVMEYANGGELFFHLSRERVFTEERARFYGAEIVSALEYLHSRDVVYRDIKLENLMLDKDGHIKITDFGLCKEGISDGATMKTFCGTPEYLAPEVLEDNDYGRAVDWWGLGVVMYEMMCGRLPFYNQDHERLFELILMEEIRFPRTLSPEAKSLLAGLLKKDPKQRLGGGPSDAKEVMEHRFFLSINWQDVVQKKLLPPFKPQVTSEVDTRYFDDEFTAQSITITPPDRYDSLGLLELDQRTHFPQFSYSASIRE
Sequence of Platelet-derived growth factor receptor alpha (P16234 whole entry): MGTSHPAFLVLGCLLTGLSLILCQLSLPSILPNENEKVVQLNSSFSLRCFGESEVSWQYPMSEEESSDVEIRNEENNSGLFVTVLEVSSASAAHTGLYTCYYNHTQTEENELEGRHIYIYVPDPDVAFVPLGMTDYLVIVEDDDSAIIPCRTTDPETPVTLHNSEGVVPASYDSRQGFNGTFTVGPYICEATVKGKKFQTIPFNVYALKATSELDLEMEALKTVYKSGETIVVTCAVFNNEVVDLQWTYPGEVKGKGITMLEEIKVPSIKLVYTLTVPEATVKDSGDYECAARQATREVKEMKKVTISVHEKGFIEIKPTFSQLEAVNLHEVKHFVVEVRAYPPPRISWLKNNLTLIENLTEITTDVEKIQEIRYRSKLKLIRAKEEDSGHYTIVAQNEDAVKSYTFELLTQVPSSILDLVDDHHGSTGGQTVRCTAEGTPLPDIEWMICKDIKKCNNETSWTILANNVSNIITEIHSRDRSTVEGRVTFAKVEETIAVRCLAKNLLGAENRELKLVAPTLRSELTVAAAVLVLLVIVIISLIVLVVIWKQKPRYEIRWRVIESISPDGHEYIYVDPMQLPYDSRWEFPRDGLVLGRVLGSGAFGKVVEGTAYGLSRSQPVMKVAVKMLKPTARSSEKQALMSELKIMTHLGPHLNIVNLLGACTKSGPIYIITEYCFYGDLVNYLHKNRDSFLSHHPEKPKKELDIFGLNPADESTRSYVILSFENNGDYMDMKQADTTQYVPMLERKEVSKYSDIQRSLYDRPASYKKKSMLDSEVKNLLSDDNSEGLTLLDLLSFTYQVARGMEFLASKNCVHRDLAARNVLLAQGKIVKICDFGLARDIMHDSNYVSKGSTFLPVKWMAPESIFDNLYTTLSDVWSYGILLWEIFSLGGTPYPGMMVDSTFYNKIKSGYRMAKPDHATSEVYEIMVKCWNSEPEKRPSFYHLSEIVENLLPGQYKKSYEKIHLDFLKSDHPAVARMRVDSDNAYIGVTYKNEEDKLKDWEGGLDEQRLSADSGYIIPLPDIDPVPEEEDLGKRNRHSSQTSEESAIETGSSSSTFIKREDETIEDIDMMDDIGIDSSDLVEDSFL
Sequence of Fibroblast growth factor receptor 3 (P22607 23-806 limits assumed): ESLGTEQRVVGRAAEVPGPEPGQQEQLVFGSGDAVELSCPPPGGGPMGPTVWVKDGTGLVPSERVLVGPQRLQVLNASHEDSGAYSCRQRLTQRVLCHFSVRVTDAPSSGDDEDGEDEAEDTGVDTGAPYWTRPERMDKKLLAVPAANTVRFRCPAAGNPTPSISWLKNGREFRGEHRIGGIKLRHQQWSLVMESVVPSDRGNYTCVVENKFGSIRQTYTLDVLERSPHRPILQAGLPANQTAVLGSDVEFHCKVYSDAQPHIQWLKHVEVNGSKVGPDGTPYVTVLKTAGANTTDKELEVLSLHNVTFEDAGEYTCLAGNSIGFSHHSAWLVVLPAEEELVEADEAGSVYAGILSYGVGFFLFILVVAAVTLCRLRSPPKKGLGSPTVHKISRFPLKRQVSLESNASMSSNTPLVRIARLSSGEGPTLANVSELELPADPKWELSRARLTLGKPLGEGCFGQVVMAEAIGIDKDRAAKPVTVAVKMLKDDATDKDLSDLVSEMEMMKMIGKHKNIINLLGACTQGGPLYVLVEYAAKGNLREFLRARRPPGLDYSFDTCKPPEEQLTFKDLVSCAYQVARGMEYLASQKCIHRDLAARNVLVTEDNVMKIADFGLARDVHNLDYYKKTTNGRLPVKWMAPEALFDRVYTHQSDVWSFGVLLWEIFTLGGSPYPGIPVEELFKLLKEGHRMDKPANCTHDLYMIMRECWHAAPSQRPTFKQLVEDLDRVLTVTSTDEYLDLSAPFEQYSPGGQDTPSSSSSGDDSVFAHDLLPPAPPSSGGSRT
Sequence of Serine/threonine-protein kinase MRCK beta (Homo sapiens) (Q9Y5S2 whole entry): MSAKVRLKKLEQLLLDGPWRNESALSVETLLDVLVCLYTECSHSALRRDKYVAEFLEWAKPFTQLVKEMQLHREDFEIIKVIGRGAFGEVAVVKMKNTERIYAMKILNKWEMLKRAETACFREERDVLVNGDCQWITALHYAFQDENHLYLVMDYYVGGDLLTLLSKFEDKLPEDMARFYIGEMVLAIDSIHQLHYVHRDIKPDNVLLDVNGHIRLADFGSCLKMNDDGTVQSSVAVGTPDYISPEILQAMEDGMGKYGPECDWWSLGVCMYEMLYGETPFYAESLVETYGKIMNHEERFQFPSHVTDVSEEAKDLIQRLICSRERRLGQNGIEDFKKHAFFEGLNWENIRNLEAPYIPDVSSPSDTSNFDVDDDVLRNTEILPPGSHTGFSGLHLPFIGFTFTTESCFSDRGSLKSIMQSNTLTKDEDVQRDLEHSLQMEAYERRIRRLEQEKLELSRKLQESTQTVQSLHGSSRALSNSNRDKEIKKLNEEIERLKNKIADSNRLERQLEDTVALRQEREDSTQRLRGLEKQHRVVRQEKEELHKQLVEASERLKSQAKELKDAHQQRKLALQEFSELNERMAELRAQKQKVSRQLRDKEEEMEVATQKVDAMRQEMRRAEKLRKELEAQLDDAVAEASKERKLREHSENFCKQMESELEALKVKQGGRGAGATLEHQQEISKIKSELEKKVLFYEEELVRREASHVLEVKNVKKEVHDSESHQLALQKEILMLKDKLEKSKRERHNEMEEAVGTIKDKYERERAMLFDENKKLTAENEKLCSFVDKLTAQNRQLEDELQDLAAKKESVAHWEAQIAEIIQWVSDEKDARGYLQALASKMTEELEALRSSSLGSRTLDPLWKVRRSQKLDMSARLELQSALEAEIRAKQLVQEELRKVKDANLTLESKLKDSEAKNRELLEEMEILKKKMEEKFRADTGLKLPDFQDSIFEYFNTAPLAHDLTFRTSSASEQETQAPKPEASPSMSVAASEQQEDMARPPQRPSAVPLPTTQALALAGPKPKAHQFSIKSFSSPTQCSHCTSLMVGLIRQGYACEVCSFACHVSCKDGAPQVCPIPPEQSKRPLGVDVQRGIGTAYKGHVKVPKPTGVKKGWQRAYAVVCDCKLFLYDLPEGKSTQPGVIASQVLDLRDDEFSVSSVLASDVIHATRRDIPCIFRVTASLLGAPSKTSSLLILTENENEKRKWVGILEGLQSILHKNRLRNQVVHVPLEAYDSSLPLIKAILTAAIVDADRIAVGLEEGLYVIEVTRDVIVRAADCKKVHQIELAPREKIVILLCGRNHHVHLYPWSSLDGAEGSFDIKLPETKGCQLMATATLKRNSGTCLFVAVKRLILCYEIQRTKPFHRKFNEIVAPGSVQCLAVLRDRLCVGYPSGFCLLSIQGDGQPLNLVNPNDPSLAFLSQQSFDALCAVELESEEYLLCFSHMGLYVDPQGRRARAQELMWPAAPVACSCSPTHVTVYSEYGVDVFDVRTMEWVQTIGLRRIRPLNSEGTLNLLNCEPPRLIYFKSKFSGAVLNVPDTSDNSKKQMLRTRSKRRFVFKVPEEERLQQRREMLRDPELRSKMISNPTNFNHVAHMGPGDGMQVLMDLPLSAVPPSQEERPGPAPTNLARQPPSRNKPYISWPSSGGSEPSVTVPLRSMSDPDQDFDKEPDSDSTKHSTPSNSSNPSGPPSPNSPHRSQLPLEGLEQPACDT
Sequence of Activin receptor type-2B (Homo sapiens) (Q13705 whole entry): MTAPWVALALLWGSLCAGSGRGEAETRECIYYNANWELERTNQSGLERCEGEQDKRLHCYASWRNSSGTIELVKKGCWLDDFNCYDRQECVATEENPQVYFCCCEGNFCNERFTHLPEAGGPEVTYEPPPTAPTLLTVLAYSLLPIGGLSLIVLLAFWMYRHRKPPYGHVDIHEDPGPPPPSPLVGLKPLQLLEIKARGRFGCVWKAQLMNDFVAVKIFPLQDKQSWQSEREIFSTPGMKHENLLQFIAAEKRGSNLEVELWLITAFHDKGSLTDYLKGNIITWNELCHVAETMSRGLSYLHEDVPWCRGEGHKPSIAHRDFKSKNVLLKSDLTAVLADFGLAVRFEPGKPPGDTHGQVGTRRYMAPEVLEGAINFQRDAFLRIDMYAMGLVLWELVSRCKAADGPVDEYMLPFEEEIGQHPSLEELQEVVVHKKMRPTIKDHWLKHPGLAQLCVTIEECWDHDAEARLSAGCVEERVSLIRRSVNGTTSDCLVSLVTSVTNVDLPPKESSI

`C=CC(=O)Nc1ccc(C(=O)Nc2[nH]nc3c2CN(C(=O)N[C@H](CN(C)C)c2ccccc2)C3(C)C)cc1` was tested, and the % of engagement [1] was -0.6%.
`COCC(=O)NC/C=C/c1ccc2ncnc(Nc3ccc(Oc4ccc(C)nc4)c(C)c3)c2c1` [CP-724714] was tested, and the % of control [2] was 100%.
`Cc1cc(F)c(C(=O)Nc2cccc(-c3nncn3C(C)C)n2)cc1-n1cnc(C2CC2)c1` showed a % of control [3] of 100%.
`Nc1cnc(N2CCc3cc(S(=O)(=O)Nc4c(F)cc(Cl)cc4F)cc(N4CCCC4=O)c32)nc1` [TP-020n] showed a % of control [4] of 80%.
Work on `Cn1cc(-n2cnc3c(NCc4nc5cc(Cl)c(Cl)cc5[nH]4)nc(N4CCOCC4)nc32)cn1` yielded a % of control [5] of -1.23% and a % of inhibition [6] of -36.5%.
Work on `Cc1cc(C)cc([C@@H]2c3cc(C)ccc3NC(=O)CN2C(=O)c2ccc(Br)s2)c1` yielded a % of inhibition [7] of -4%.
`Cc1cnc(Nc2ccc(F)cc2Cl)nc1-c1c[nH]c(C(=O)N[C@H](CO)c2cccc(Cl)c2)c1` showed a % of inhibition [8] of 0%.
For `COc1cc(Nc2nc(C)cc(-c3cnn4nc(OC)ccc34)n2)cc(C(F)(F)F)c1`, the % of control [9] was 69%.
`Cc1ccc(-c2ccc3c(ccc4sc5c(c43)NC[C@@H](C)NC5=O)n2)cn1` was tested, and the % of inhibition [10] was 22% and the % of inhibition [11] was 4%.
In the case of `O[C@H]1CC[C@H](Nc2ncc3nc(Nc4c(F)cc(F)cc4F)n([C@H]4CCOC4)c3n2)CC1`, the % of control [12] is reported as 100% and the % of control [13] is reported as 5.7%.
`CC[C@@H]1[C@H](F)C(=O)N[C@@H]1COc1nccc2cc(C(N)=O)c(OC)cc12` [ZIMLOVISERTIB] gave a % of inhibition [14] of 15.8% and a % of inhibition [15] of -0.438%.
`CN(C)C/C=C/C(=O)Nc1ccc(C(=O)N2CCCC(Nc3ncc(Cl)c(-c4c[nH]c5ccccc45)n3)C2)cc1` (stereo unspecified) showed a % of control [16] of 92%.

— ChEMBL document CHEMBL5465560, “Selectivity Literature for EUbOPEN Chemogenomic Library” (2024)
